PubChem BioAssay (NCI)
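Each compound was tested at five concentrations against cells in 96-well plates for 48 hours. GI50 = concentration required for 50% inhibition of growth. TGI is the concentration that stops growth completely.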

Key:
Assay in all cases: NCI-60 cell line screen, 48 h
[1] = test system: 786-0 renal
[2] = test system: A498 renal
[3] = test system: A549 NSCLC
[4] = test system: ACHN renal
[5] = test system: BT-549 breast
[6] = test system: CAKI-1 renal
[7] = test system: CCRF-CEM leukemia
[8] = test system: COLO 205 colon
[9] = test system: DU-145 prostate
[10] = test system: EKVX NSCLC
[11] = test system: HCT-116 colon
[12] = test system: HCT-15 colon
[13] = test system: HL-60(TB) leukemia
[14] = test system: HOP-62 NSCLC
[15] = test system: HS 578T breast
[16] = test system: HT29 colon
[17] = test system: IGROV1 ovarian
[18] = test system: K-562 leukemia
[19] = test system: KM12 colon
[20] = test system: LOX IMVI melanoma
[21] = test system: M14 melanoma
[22] = test system: MCF7 breast
[23] = test system: MDA-MB-231 breast
[24] = test system: MDA-MB-435
[25] = test system: MDA-N
[26] = test system: MOLT-4 leukemia
[27] = test system: NCI-H226 lung
[28] = test system: NCI-H23 lung
[29] = test system: NCI-H460 lung
[30] = test system: NCI-H522 lung
[31] = test system: NCI/ADR-RES ovarian
[32] = test system: OVCAR-3 ovarian
[33] = test system: OVCAR-4 ovarian
[34] = test system: OVCAR-5 ovarian
[35] = test system: OVCAR-8 ovarian
[36] = test system: PC-3 prostate
[37] = test system: RPMI-8226 leukemia
[38] = test system: SF-268 CNS
[39] = test system: SF-295 CNS
[40] = test system: SF-539 CNS
[41] = test system: SK-MEL-2 melanoma
[42] = test system: SK-MEL-28 melanoma
[43] = test system: SK-MEL-5 melanoma
[44] = test system: SK-OV-3 ovarian
[45] = test system: SN12C renal
[46] = test system: SNB-19 CNS
[47] = test system: SNB-75 CNS
[48] = test system: SR leukemia
[49] = test system: SW-620 colon
[50] = test system: T-47D breast
[51] = test system: TK-10 renal
[52] = test system: U251 CNS
[53] = test system: UACC-257 melanoma
[54] = test system: UACC-62 melanoma
[55] = test system: UO-31 renal
[56] = test system: HCC-2998 colon
[57] = test system: HOP-92 NSCLC
[58] = test system: MALME-3M melanoma

SMILES: CC1COC(c2cn[nH]c2C(N)=O)C1O (centres undefined)
- TGI [1]: > 100 µM
- TGI [2]: > 100 µM
- TGI [3]: > 100 µM
- TGI [4]: > 100 µM
- TGI [5]: > 100 µM
- TGI [6]: > 100 µM
- TGI [7]: > 100 µM
- TGI [8]: > 100 µM
- TGI [9]: > 100 µM
- TGI [10]: > 100 µM
- TGI [11]: > 100 µM
- TGI [12]: > 100 µM
- TGI [13]: > 100 µM
- TGI [14]: > 100 µM
- TGI [15]: > 100 µM
- TGI [16]: > 100 µM
- TGI [17]: > 100 µM
- TGI [18]: > 100 µM
- TGI [19]: > 100 µM
- TGI [20]: > 100 µM
- TGI [21]: > 100 µM
- TGI [22]: > 100 µM
- TGI [23]: > 100 µM
- TGI [24]: > 100 µM
- TGI [25]: > 100 µM
- TGI [26]: > 100 µM
- TGI [27]: > 100 µM
- TGI [28]: > 100 µM
- TGI [29]: > 100 µM
- TGI [30]: > 100 µM
- TGI [31]: > 100 µM
- TGI [32]: > 100 µM
- TGI [33]: > 100 µM
- TGI [34]: > 100 µM
- TGI [35]: > 100 µM
- TGI [36]: > 100 µM
- TGI [37]: > 100 µM
- TGI [38]: > 100 µM
- TGI [39]: > 100 µM
- TGI [40]: > 100 µM
- TGI [41]: > 100 µM
- TGI [42]: > 100 µM
- TGI [43]: > 100 µM
- TGI [44]: > 100 µM
- TGI [45]: > 100 µM
- TGI [46]: > 100 µM
- TGI [47]: > 100 µM
- TGI [48]: > 100 µM
- TGI [49]: > 100 µM
- TGI [50]: > 100 µM
- TGI [51]: > 100 µM
- TGI [52]: > 100 µM
- TGI [53]: > 100 µM
- TGI [54]: > 100 µM
- TGI [55]: > 100 µM

SMILES: O=c1[nH]cnc2c1ncn2C1CCC(CO)O1 (centres undefined)
- TGI [1]: > 1000 µM
- GI50 [3]: > 1000 µM
- TGI [3]: > 1000 µM
- TGI [4]: > 1000 µM
- TGI [5]: > 1000 µM
- GI50 [6]: > 1000 µM
- TGI [6]: > 1000 µM
- GI50 [7]: > 1000 µM
- TGI [7]: > 1000 µM
- GI50 [8]: > 1000 µM
- TGI [8]: > 1000 µM
- TGI [9]: > 1000 µM
- GI50 [10]: > 1000 µM
- TGI [10]: > 1000 µM
- GI50 [56]: > 1000 µM
- TGI [56]: > 1000 µM
- GI50 [11]: > 1000 µM
- TGI [11]: > 1000 µM
- GI50 [12]: > 1000 µM
- TGI [12]: > 1000 µM
- GI50 [13]: > 1000 µM
- TGI [13]: > 1000 µM
- GI50 [14]: > 1000 µM
- TGI [14]: > 1000 µM
- GI50 [57]: > 1000 µM
- TGI [57]: > 1000 µM
- TGI [15]: > 1000 µM
- GI50 [16]: > 1000 µM
- TGI [16]: > 1000 µM
- GI50 [17]: > 1000 µM
- TGI [17]: > 1000 µM
- GI50 [18]: > 1000 µM
- TGI [18]: > 1000 µM
- GI50 [19]: > 1000 µM
- TGI [19]: > 1000 µM
- GI50 [20]: > 1000 µM
- TGI [20]: > 1000 µM
- TGI [21]: > 1000 µM
- GI50 [58]: > 1000 µM
- TGI [58]: > 1000 µM
- GI50 [22]: > 1000 µM
- TGI [22]: > 1000 µM
- TGI [23]: > 1000 µM
- TGI [24]: > 1000 µM
- TGI [25]: > 1000 µM
- GI50 [26]: > 1000 µM
- TGI [26]: > 1000 µM
- GI50 [27]: > 1000 µM
- TGI [27]: > 1000 µM
- GI50 [28]: > 1000 µM
- TGI [28]: > 1000 µM
- GI50 [30]: > 1000 µM
- TGI [30]: > 1000 µM
- GI50 [31]: > 1000 µM
- TGI [31]: > 1000 µM
- GI50 [32]: > 1000 µM
- TGI [32]: > 1000 µM
- GI50 [33]: > 1000 µM
- TGI [33]: > 1000 µM
- GI50 [34]: > 1000 µM
- TGI [34]: > 1000 µM
- GI50 [35]: > 1000 µM
- TGI [35]: > 1000 µM
- TGI [36]: > 1000 µM
- GI50 [37]: > 1000 µM
- TGI [37]: > 1000 µM
- GI50 [41]: > 1000 µM
- TGI [41]: > 1000 µM
- GI50 [43]: > 1000 µM
- TGI [43]: > 1000 µM
- GI50 [44]: > 1000 µM
- TGI [44]: > 1000 µM
- GI50 [45]: > 1000 µM
- TGI [45]: > 1000 µM
- TGI [48]: > 1000 µM
- GI50 [49]: > 1000 µM
- TGI [49]: > 1000 µM
- TGI [50]: > 1000 µM
- TGI [51]: > 1000 µM
- GI50 [53]: > 1000 µM
- TGI [53]: > 1000 µM
- GI50 [54]: > 1000 µM
- TGI [54]: > 1000 µM
- TGI [55]: > 1000 µM
